According to US12679825B2, “Crystalline and amorphous forms of a δ-opioid modulator” (Trevena, Inc., priority 2020, dated 2026):
“Also recorded” adds a separate entry of the source.

Experiments:
[1] = Spectrometric (UV-metric) pKa; type: physicochemical; conditions: base; aqueous value by Yasuda-Shedlovsky extrapolation from methanol-water co-solvent; 25.0±0.2° C.; 0.15 M KCl
Method: Crystalline forms of the compound of Formula I, including the crystalline Form I, were analyzed using pKa and LogP. An automated titrator system with an incorporated UV-Vis spectrometer (SiriusT3™, Pion Inc.) was used to acquire the spectrometric and potentiometric data. The optical system consisted of a photodiode array detector with a deuterium lamp and a fiber optic dip probe.
The titrator module consisted of a temperature controller (by Peltier device with in-situ thermocouple), pH electrode, an overhead stirrer, and motorized dispensers for the automatic delivery of assay titrants and reagents via capillaries. The instrumentation was operated using SiriusT3Control software (V2.0). Data processing and generation of the reported pKa and logP values was carried out using SiriusT3Refine software (V2.0). The titrants used were 0.5 M hydrochloric acid and 0.5 M potassium hydroxide, standardized using potassium hydrogen phthalate. ACS or HPLC grade methanol cosolvent was used for pKa determination. Spectrophotometric experiments were carried out in the presence of a mid-range buffer solution (15 mM di-potassium hydrogen orthophosphate) or Neutral Linear Buffer™ to prevent uncontrolled pH-drift at mid-range pH. For logP assays, ACS or HPLC grade 1-octanol was used as the partition solvent.
All experiments were carried out at a controlled temperature of 25.0±0.2° C. […]

[2] = 14-day stability testing (XRPD, HPLC, appearance); type: physicochemical; parameters: key to XRPD after storage: CRY: Crystalline; conditions: 14 days; for Post-Storage Observations (appearance): input White solid (NE12); for 14-Day Stability, Solid Purity after storage: open vial, input 98.9% area
Method: Crystalline forms of the compound of Formula I, including the crystalline Form I, were analyzed regarding stability. Approximately 10 mg of free base Form I was subjected to 14-day stability testing under the following conditions to assess developability: • 40° C./75% RH (open vial); • Ambient light, temperature and humidity conditions (open vial).
After 2 weeks under the specified conditions, XRPD and HPLC analysis was carried out on the resultant solid material. The sample appearance was monitored over 14 days.

## COCCOc1cccc([C@@H]2CCN(CCn3cccc3)[C@H](C)[C@H]2COc2ccc3c(c2)C(=O)NC3)c1 [crystalline Form I, (−)-6-{[(trans, trans)-4-[3-(2-methoxyethoxy)phenyl]-2-methyl-1-[2-(1H-pyrrol-1-yl)ethyl]piperidin-3-yl]methoxy}-2,3-dihydro-1H-isoindol-1-one]
[1]
  pKa: 7.74 ± 0.04
[2]; 40° C./75% RH and ambient conditions
  Decrease in purity after storage (HPLC): ≤ 0.3 % area
[2]; 40° C./75% RH
  14-Day Stability, form by XRPD: retained; also recorded: Form I
  XRPD after storage: CRY
  Post-Storage Observations (appearance): White solid (NE12)
  14-Day Stability, Solid Purity after storage: 99.0 % area
[2]; Ambient light, temperature and humidity
  14-Day Stability, Solid Purity after storage: 98.6 % area
[2]; Ambient
  14-Day Stability, form by XRPD: retained; also recorded: Form I
  XRPD after storage: CRY
  Post-Storage Observations (appearance): White solid (NE12)
